# What was measured:
# [1] = system: metastatic cancers overexpressing ErbB2 and/or expressing ErbB1; assay: Clinical response (RECIST) in open-label randomized dose-cohort trial; assay type: in vivo, human; details: for Partial Response (PR), number of patients / Stable Disease (SD), number of patients: all subjects
# Description: Clinical response was assessed after 8 weeks of therapy.
# The Institutional Review Boards at the Sarah Cannon Cancer Center, University of North Carolina-Chapel Hill/Lineberger Comprehensive Cancer Center, Duke University Medical Center, and Case Western Reserve Medical Center approved this study.
# Patients with a positive response to treatment (CR, PR or SD) continued on therapy with re-staging every 8 weeks thereafter. Patients were withdrawn from study upon evidence of disease progression or intolerable side effects.
# [2] = system: p-ErbB1; assay: Quantitative IHC of sequential tumor biopsies (Day 0 vs Day 21): p-ErbB1; assay type: in vivo, human; details: for pErbB1 % change: Day 21 vs Day 0
# [3] = system: EGFR autophosphorylation; details: tumor cell lines that overexpress these receptors; cited from earlier work
# [4] = system: ErbB2 autophosphorylation; details: tumor cell lines that overexpress these receptors; cited from earlier work
# [5] = system: ErbB1; assay: Quantitative IHC of sequential tumor biopsies (Day 0 vs Day 21): ErbB1; details: 900 mg/day; for ErbB1 % change: Day 21 vs Day 0
# Description: (§1) Patients were monitored by physical examination, clinical chemistry and hematology blood tests, and formally re-staged after 8 weeks of therapy. […] Response was classified as Complete Response (CR), Partial Response (PR), Stable Disease (SD) or Progressive Disease (PD). Patients with CR, PR or SD were considered to have a positive clinical response. Patients with Progressive Disease (PD) were considered to have a negative clinical response.
# (§2) Biopsies were fixed in 10% neutral buffered formalin (NBF) and paraffin-embedded sections prepared. Hematoxylin and eosin (H&E) staining was used to confirm for the presence of tumor.
# (§3) The VMSI “I-View” detection kit was used for all three of the VMSI pre-diluted primary antibodies. Erk1/2 (1:1200), and TGFalpha (1:20) were immunostained using the “BenchMark” with I-VIEW detection chemistry. Phospho-Erk1/2 (1:100) and p-Akt (1:75) were immunostained using a labeled streptavidin peroxidase technique. […] Slides were placed onto the Autostainer (Dako, Carpinteria, Calif.) and used the labeled streptavidin-biotin peroxidase method (LSAB2 kit, Dako) as the detection chemistry. After staining, ErbB1, ErbB2, Erk1/2, p-Akt, p-Erk1/2, p-ErbB1, p-ErbB2, cyclin D1, IGF-IR, and TGFalpha were counterstained manually with 4% ethyl green (Sigma-Aldrich). […] Investigators preparing and analyzing tissue sections were blinded to both patient tumor type and response to therapy.
# (§4) Expression of ErbB1, ErbB2, p-ErbB1, p-ErbB2, Erk1/2, p-Erk1/2, Akt, p-Akt, TGFalpha, IGF-IR and cyclin D1 was assessed by IHC with automated image analysis using established assays; OD values were assigned to each specimen.
# (§5) For purposes of this Example, “inhibition” of a biomarker refers to a decrease in the level of the biomarker, assessed by comparing the level detected in a Day 0 biopsy from a patient to the level detected in a Day 21 biopsy from the same patient.
# [6] = system: ErbB2; assay: Quantitative IHC of sequential tumor biopsies (Day 0 vs Day 21): ErbB2; details: 900 mg/day; for ErbB2 % change: Day 21 vs Day 0
# Description: as §1, §2, §3, §4, §5
# [7] = system: p-Akt; assay: Quantitative IHC of sequential tumor biopsies (Day 0 vs Day 21): p-Akt; details: for pAkt % change: Day 21 vs Day 0; for p-Akt inhibition (Day 21 vs Day 0): PR
# Description: as §1, §2, §3, §4, §5
# [8] = system: p-ErbB2; assay: Quantitative IHC of sequential tumor biopsies (Day 0 vs Day 21): p-ErbB2; details: for pErbB2 % change: Day 21 vs Day 0
# Description: as §1, §2, §3, §4, §5
# [9] = system: p-Erk1/2; assay: Quantitative IHC of sequential tumor biopsies (Day 0 vs Day 21): p-Erk1/2
# Description: as §1, §2, §3, §4, §5
# [10] = system: TGFalpha; assay: Quantitative IHC of sequential tumor biopsies (Day 0 vs Day 21): TGFalpha; details: 900 mg/day; for TGFa % change: Day 21 vs Day 0
# Description: as §1, §2, §3, §4, §5
# [11] = system: cyclin D1; assay: Quantitative IHC of sequential tumor biopsies (Day 0 vs Day 21): cyclin D1; details: for Cyclin D % change: Day 21 vs Day 0
# Description: as §1, §2, §3, §4, §5
# [12] = system: tumor cells; assay: TUNEL assay of sequential tumor biopsies (Day 0 vs Day 21), tumor cell apoptosis; details: for TUNEL % change: Day 21 vs Day 0; for TUNEL % change / TUNEL score (percent tumor cells staining positive), Day 21: 900 mg/day
# Description: A commonly used method is TUNEL (Terminal deoxynucleotidyl Transferase Biotin-dUTP Nick End Labeling). One of the characteristics of apoptosis is the degradation of DNA after the activation of Ca/Mg dependent endonucleases. This DNA cleavage leads to strand breaks within the DNA. The TUNEL method identifies apoptotic cells in situ by using terminal deoxynucleotidyl transferase (TdT) to transfer biotin-dUTP to the free 3′-OH of cleaved DNA. The biotin-labeled cleavage sites are then visualized by reaction with fluorescein conjugated avidin (avidin-FITC).
# as §1
# TUNEL assay (Roche Diagnostics, Indianapolis, Ind.) was performed according to the manufacturer's instructions. Investigators preparing and analyzing tissue sections were blinded to both patient tumor type and response to therapy.
# TUNEL scores represent the percent tumor cells staining positive.
# For purposes of this Example, an “increase” in TUNEL score refers to an increased TUNEL score in the Day 21 biopsy, compared to the TUNEL score of the Day 0 biopsy from the same patient.
# TUNEL staining is a quantitative measurement of DNA fragmentation characteristic of cellular apoptosis.
# [13] = Breast, 30 enrolled, 500-1,600 mg orally once daily
# [14] = Carcinoma of Unknown Primary, 5 enrolled
# [15] = breast cancer patient, 900 mg/day, Progressive Disease
# [16] = refractory Inflammatory Breast Cancer patient, 900 mg/day, Partial Response
# [17] = additional patient with non-inflammatory metastatic breast cancer, PR, 1200 mg/d, 21 days
# [18] = patient with breast cancer, PD after 8 weeks (Table 5)
# [19] = patient with non-inflammatory metastatic breast cancer, PR, 900 mg/day
# [20] = second patient with IBC, PR (Table 4)
# [21] = breast cancer patient, Progressive Disease
# [22] = refractory Inflammatory Breast Cancer patient, Partial Response
# [23] = first patient with IBC, PR, 650 mg/d, 21 days
structure (smiles),measurement,setting,value
CS(=O)(=O)CCNCc1ccc(-c2ccc3ncnc(Nc4ccc(OCc5cccc(F)c5)c(Cl)c4)c3c2)o1 [lapatinib],"Partial responses (PR), number of patients","[1]; 33 patients with sequential tumor biopsies, breast cancer",4
same,"Disease stabilization (SD), number of patients","[1]; 33 patients with sequential tumor biopsies, various malignancies",11
same,"Partial Response (PR), number of patients",[1]; [13],4
same,"Stable Disease (SD), number of patients",[1]; [13],10
same,"Partial Response (PR), number of patients",[1]; [14],0
same,"Stable Disease (SD), number of patients",[1]; [14],5
same,"Partial Response (PR), number of patients","[1]; Colon, 7 enrolled",0
same,"Stable Disease (SD), number of patients","[1]; Colon, 7 enrolled",2
same,"Partial Response (PR), number of patients","[1]; Head and Neck, 5 enrolled",0
same,"Stable Disease (SD), number of patients","[1]; Head and Neck, 5 enrolled",3
same,"Partial Response (PR), number of patients","[1]; Lung, 11 enrolled",0
same,"Stable Disease (SD), number of patients","[1]; Lung, 11 enrolled",6
same,"Partial Response (PR), number of patients","[1]; Other tumor types, 5 enrolled",0
same,"Stable Disease (SD), number of patients","[1]; Other tumor types, 5 enrolled",4
same,"Partial Response (PR), number of patients","[1]; Ovarian, 4 enrolled",0
same,"Stable Disease (SD), number of patients","[1]; Ovarian, 4 enrolled",2
same,"Partial Response (PR), number of patients","[1]; Total, 67 enrolled",4
same,"Stable Disease (SD), number of patients","[1]; Total, 67 enrolled",32
same,Number of patients with Partial Response,[1]; dose 650 mg/day,1
same,Number of patients with Partial Response,[1]; dose 900 mg/day,1
same,Number of patients with Partial Response,[1]; dose 1200 mg/day,2
same,"Response Duration, median",[1]; patients with Partial Response,5+ months
same,pErbB1 % change,[2]; [15],−81%
same,pErbB1 % change,[2]; [16],−80%
same,p-ErbB1 inhibition (Day 21 vs Day 0),[2]; [17],not associated with any appreciable inhibition
same,"pErbB1 (IHC OD value), Day 21",[2]; [15],3
same,p-ErbB1 inhibition (Day 21 vs Day 0),[2]; [18],81%
same,p-ErbB1 inhibition (Day 21 vs Day 0),[2]; [19],31%
same,"pErbB1 (IHC OD value), Day 21",[2]; [16],1
same,p-ErbB1 inhibition (Day 21 vs Day 0),[2]; [20],80%
same,EGFR autophosphorylation,[3],inhibits
same,ErbB2 autophosphorylation,[4],inhibits
same,ErbB1 % change,[5]; [21],+35%
same,ErbB1 % change,[5]; [22],−9%
same,"ErbB1 (IHC OD value), Day 21",[5]; [21],19
same,"ErbB1 (IHC OD value), Day 21",[5]; [22],32
same,ErbB2 % change,[6]; [21],−27%
same,ErbB2 % change,[6]; [22],−7%
same,"ErbB2 (IHC OD value), Day 21",[6]; [21],32
same,"ErbB2 (IHC OD value), Day 21",[6]; [22],65
same,pAkt % change,[7]; [15],−8%
same,pAkt % change,[7]; [16],−0%
same,p-Akt inhibition (Day 21 vs Day 0),"[7]; additional patient with non-inflammatory metastatic breast cancer, 1200 mg/d, 21 days",34%
same,"pAkt (IHC OD value), Day 21",[7]; [15],33
same,p-Akt inhibition (Day 21 vs Day 0),"[7]; first patient with IBC, 650 mg/d, 21 days",90%
same,p-Akt change (Day 21 vs Day 0),[7]; [18],essential unchanged
same,p-Akt inhibition (Day 21 vs Day 0),"[7]; patient with non-inflammatory metastatic breast cancer, 900 mg/day",44%
same,"pAkt (IHC OD value), Day 21",[7]; [16],20
same,p-Akt change (Day 21 vs Day 0),[7]; [20],essentially unchanged
same,pErbB2 % change,[8]; [15],0%
same,pErbB2 % change,[8]; [16],−83%
same,p-ErbB2 inhibition (Day 21 vs Day 0),[8]; [17],not associated with any appreciable inhibition
same,"pErbB2 (IHC OD value), Day 21",[8]; [15],3
same,p-ErbB2 inhibition (Day 21 vs Day 0),[8]; [23],72%
same,p-ErbB2 change (Day 21 vs Day 0),[8]; [19],remained unchanged
same,"pErbB2 (IHC OD value), Day 21",[8]; [16],5
same,p-ErbB2 inhibition (Day 21 vs Day 0),[8]; [20],83%
same,p-Erk1/2 inhibition (Day 21 vs Day 0),[9]; [17],complete inhibition
same,p-Erk1/2 inhibition (Day 21 vs Day 0),[9]; [18],87%
same,p-Erk1/2 inhibition (Day 21 vs Day 0),[9]; [19],completely inhibited
same,p-Erk1/2 inhibition (Day 21 vs Day 0),[9]; [20],68%
same,TGFa % change,[10]; [21],−53%
same,TGFa % change,[10]; [22],−61%
same,"TGFa (IHC OD value), Day 21",[10]; [21],23
same,"TGFa (IHC OD value), Day 21",[10]; [22],21
same,Cyclin D % change,[11]; [15],−76%
same,Cyclin D % change,[11]; [16],−57%
same,cyclin D inhibition (Day 21 vs Day 0),[11]; [17],90%
same,"Cyclin D (IHC OD value), Day 21",[11]; [15],10
same,cyclin D1 inhibition (Day 21 vs Day 0),[11]; [23],49%
same,cyclin D1 inhibition (Day 21 vs Day 0),[11]; [18],76%
same,cyclin D1 inhibition (Day 21 vs Day 0),[11]; [19],90%
same,"Cyclin D (IHC OD value), Day 21",[11]; [16],12
same,cyclin D1 inhibition (Day 21 vs Day 0),[11]; [20],57%
same,TUNEL % change,[12]; [21],0%
same,TUNEL % change,[12]; [22],+2400%
same,"Percentage of tumor cells stained positive by TUNEL, Day 21 vs Day 0",[12]; all four patients achieving Partial Response,markedly increased
same,"TUNEL score (percent tumor cells staining positive), Day 21",[12]; [21],0
same,"TUNEL score, Day 21 vs Day 0","[12]; patient with ErbB1-overexpressing head and neck carcinoma, tumor regression after 8 weeks not qualifying as PR",increased
same,"TUNEL score, Day 21 vs Day 0",[12]; [18],did not show an increase
same,"TUNEL score, Day 21 vs Day 0",[12]; patients with PD at 8 weeks,did not increase
same,"TUNEL score (percent tumor cells staining positive), Day 21",[12]; [22],72
